In paper PMC12607499, “Prokaryotic Expression and Binding Characteristics of Odor-Binding Protein GqinOBP10 in Gynaephora qinghaiensis” (International Journal of Molecular Sciences, 2025):

Biological target: T1, GqinOBP10
T1 construct: gene OBP10; full length 134 residues (405 bp); signal peptide removed; vector pCZN1, E. coli BL21 (DE3); His tag cut off with enterokinase; about 15 kDa
Experiment: fluorescence competitive binding with 1-NPN probe
Set-up: species or system Gynaephora qinghaiensis
Details: 2 µM protein, 50 mM Tris-HCl pH 7.4; displacement of 1-NPN
Source text: fluorescence competitive binding with 1-NPN probe on GqinOBP10

| Structure (SMILES) | IC50 [µM] | Ki [µM] |
| --- | --- | --- |
| OCCC(O)CO (stereo not shown) [1,2,4-butanetriol] | 11.7 | 11.6 |
| O=C1CCC(=O)CC1 [1,4-Cyclohexanedione] | 13.1 | 13 |
| NC1(C(=O)O)CC1 [1-Aminocyclopropane-1-carboxylic acid] | 18.7 | 18.6 |
| NCC(O)c1ccccc1 (stereo not shown) [2-Amino-1-phenylethanol] | 4.51 | 4.48 |
| N#CC[C@H](N)C(=O)O [β-cyano-L-alanine] | 12.3 | 12.2 |

Now from value to molecule:

| IC50 [µM] | Ki [µM] | Structure (SMILES) |
| --- | --- | --- |
| 12 | 11.9 | OC1CCc2ccccc21 (stereo not shown) [1-Indanol] |
| 6 | 5.96 | CCCCCCCC/C=C\CCCCCCCC(=O)OC(CO)CO [2-Oleoylglycerol] |
| 15 | 14.9 | CC(CN)C(=O)O (stereo not shown) [3-Aminoisobutanoic acid] |
